Test results: article PMC5971037, “Synthesis and evaluation of antimicrobial, antitubercular and anticancer activities of 2-(1-benzoyl-1H-benzo[d]imidazol-2-ylthio)-N-substituted acetamides” (Chemistry Central Journal, 2018)
In brackets after ≈: the same amount, converted by molar mass. Like-named read-outs stand apart in the source and are kept apart here.

Columns and labels:
[1] = test system: B. subtilis; test: Tube dilution MIC; settings: Bacillus subtilis, 24 h, read-out: MIC B. subtilis
[2] = test system: M. tuberculosis H37Rv (NCFT/TB/537); test: Well diffusion susceptibility test (zone of inhibition); type: cell-based; settings: Mycobacterium tuberculosis, 672 h, read-out: Diameter of zone of inhibition against H37Rv (NCFT/TB/537), wells of 8 mm, 50 µg/ml test compound, 25 µg/ml standard drug, 4 weeks, NA = no activity
[3] = test system: E. coli; test: Tube dilution MIC; settings: Escherichia coli, 24 h, read-out: MIC E. coli
[4] = test system: C. albicans; test: microbe, parasite or virus in culture; settings: Candida albicans, 48 h, read-out: MIC C. albicans
[5] = test system: MCF7 (human breast cancer) cell line; test: Sulforhodamine-B (SRB) cytotoxicity assay; type: cell-based
[6] = test system: M. tuberculosis H37Rv; test: MIC by microplate alamar blue assay; type: cell-based; settings: Mycobacterium tuberculosis, NA = no activity, read-out: MIC against M. tuberculosis H37Rv
[7] = test system: HCT116 (human colorectal) cell line; test: Sulforhodamine-B (SRB) cytotoxicity assay; type: cell-based
[8] = test system: A. niger; test: microbe, parasite or virus in culture; settings: Aspergillus niger, 168 h, read-out: MIC A. niger
[9] = test system: B. cereus; test: Tube dilution MIC; settings: Bacillus cereus, 24 h, read-out: MIC B. cereus
[10] = test system: S. aureus; test: Tube dilution MIC; settings: Staphylococcus aureus, 24 h, read-out: MIC S. aureus
[11] = test system: S. typhi; test: Tube dilution MIC; type: cell-based; settings: Salmonella enterica, 24 h, read-out: MIC S. typhi
[12] = test system: Gram positive as well as Gram negative bacterial species; test: Tube dilution MIC, bacteria overall; type: cell-based
[13] = test system: A. niger; test: MFC by subculturing; type: cell-based
Experimental: (§1) The minimum bactericidal concentration (MBC) and minimum fungicidal concentration (MFC) of the synthesized benzimidazole derivatives was determined by subculturing 100 µl of culture from each tube that remained clear in MIC determination onto sterilized petri-plates containing fresh agar medium. The petri-plates were incubated and analyzed for microbial growth visually.

[14] = test system: C. albicans; test: MFC by subculturing; type: cell-based
Experimental: as §1

[15] = test system: M. tuberculosis H37Rv; test: Minimum lethal concentration (MLC); type: cell-based; settings: Mycobacterium tuberculosis, NA = no activity, read-out: MLC against M. tuberculosis H37Rv
[16] = test system: B. cereus; test: MBC by subculturing; type: cell-based
Experimental: as §1

[17] = test system: S. typhi; test: MBC by subculturing; type: cell-based; settings: Salmonella enterica, read-out: MBC S. typhi
Experimental: as §1

[18] = test system: S. aureus; test: MBC by subculturing; type: cell-based; settings: Staphylococcus aureus
Experimental: as §1

[19] = test system: E. coli; test: MBC by subculturing; type: cell-based; settings: Escherichia coli
Experimental: as §1

[20] = test system: B. subtilis; test: MBC by subculturing; type: cell-based
Experimental: as §1

[21] = In vivo LD50, ED50 and toxic dose in mice models; settings: mouse, dose that killed 50% of the mice population within the group
Experimental: The LD50 and ED50 were determined for the active compounds in mice models infected with Mycobacterium H37Rv (Table 4). […] Thus, ED50 of 1.34 mg/kg was considered safe for each of the compounds. It was observed that this dose was effective and safe for mice in different groups before infecting the mice models with specific TB bacteria as no mortality of any single animal was recorded.
The LD50 (lethal dose) and ED50 (optimum/effective dose) doses were determined for the active compounds in mice models infected with Mycobacterium H37Rv via ethical permission no., NCFT/EC/16/2313 assigned to Collaborative Research Group (CRG), NCFT, New Delhi, India.

[22] = target: mycobacterial isocitrate lyase (Mycobacterium tuberculosis, UniProt P9WKK7); test: Mycobacterial isocitrate lyase (ICL) assay; type: biochemical, M. tuberculosis H37Rv; settings: read-out: Percent inhibition of enzyme, M. ICL activity
mycobacterial isocitrate lyase, sequence (P9WKK7 whole entry): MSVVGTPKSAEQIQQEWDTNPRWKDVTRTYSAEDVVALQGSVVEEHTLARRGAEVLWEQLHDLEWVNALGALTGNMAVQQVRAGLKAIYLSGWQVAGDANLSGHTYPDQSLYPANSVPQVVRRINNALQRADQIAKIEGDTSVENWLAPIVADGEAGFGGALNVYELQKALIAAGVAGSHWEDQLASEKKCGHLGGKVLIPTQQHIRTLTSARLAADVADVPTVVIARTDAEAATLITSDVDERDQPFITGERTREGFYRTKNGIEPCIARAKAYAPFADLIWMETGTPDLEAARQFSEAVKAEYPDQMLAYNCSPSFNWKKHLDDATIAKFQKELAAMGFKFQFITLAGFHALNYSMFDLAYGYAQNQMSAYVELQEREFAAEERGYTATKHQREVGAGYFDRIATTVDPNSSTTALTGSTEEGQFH
Experimental: The compounds found potent in in vivo evaluation were assayed for inhibition of mycobacterial enzymes viz., isocitrate lyase, pantothenate synthetase and chorismate mutase.
Isocitrate lyase activity was assayed according to the protocol reported by Dixon and Kornberg (glyoxylate phenyl hydrazone formation) at 10 μM of the compounds.

[23] = SRB assay, MCF7 cell line, read-out: IC50 MCF7
[24] = HCT-116, SRB assay, HCT116 cell line, read-out: IC50 HCT116
[25] = Aspergillus niger; read-out: MFC A. niger
[26] = Candida albicans; read-out: MFC C. albicans
[27] = Bacillus cereus; read-out: MBC B. cereus
[28] = Bacillus subtilis; read-out: MBC B. subtilis
[29] = Aspergillus niger, read-out: MFC A. niger
[30] = Candida albicans, read-out: MFC C. albicans
[31] = Bacillus cereus, read-out: MBC B. cereus
[32] = Bacillus subtilis, read-out: MBC B. subtilis

| SMILES | MIC [1] | zone of inhibition at 50 µg/mL [2] | MIC [3] | MIC [4] | IC50 [5, 23] | MIC [6] | IC50 [7, 24] | MIC [8] | MIC [9] | MIC [10] | MIC [11] | MIC against Gram positive as well as Gram negative bacterial species [12] | MFC [13, 25] | MFC [14, 26] | MBC [15] | MBC [16, 27] | MBC [17] | MBC [18] | MBC [19] | MBC [20, 28] | other results |
| --- | --- | --- | --- | --- | --- | --- | --- | --- | --- | --- | --- | --- | --- | --- | --- | --- | --- | --- | --- | --- | --- |
| O=C(CSc1nc2ccccc2n1C(=O)c1ccccc1)Nc1ccc(Cl)cc1[N+](=O)[O-] [Compound 11, 2-(1-Benzoyl-1H-benzo[d]imidazol-2-ylthio)-N-(4-chloro-2-nitrophenyl)acetamide] | 27 µM (≈ 12.6 µg/mL) | 10 mm | 27 µM (≈ 12.6 µg/mL) | 13 µM (≈ 6.07 µg/mL) | 161 µM | 15 µg/mL (≈ 32.1 µM) | 23.6 µM | 27 µM (≈ 12.6 µg/mL) | 27 µM (≈ 12.6 µg/mL) | 27 µM (≈ 12.6 µg/mL) | 27 µM (≈ 12.6 µg/mL) | 0.027 µM/ml | > 50 µg/mL | > 50 µg/mL | 28 µg/mL (≈ 60 µM) | > 50 µg/mL | 50 µg/mL (≈ 107 µM) | 50 µg/mL (≈ 107 µM) | 50 µg/mL (≈ 107 µM) | 50 µg/mL (≈ 107 µM) |  |
| O=C(CSc1nc2ccccc2n1C(=O)c1ccccc1)Nc1ccccc1 [Compound 1] | 32 µM (≈ 12.4 µg/mL) | > 20 mm | 32 µM (≈ 12.4 µg/mL) | 32 µM (≈ 12.4 µg/mL) |  | 12.5 µg/mL (≈ 32.3 µM) |  | 32 µM (≈ 12.4 µg/mL) | 32 µM (≈ 12.4 µg/mL) | 32 µM (≈ 12.4 µg/mL) | 32 µM (≈ 12.4 µg/mL) |  |  |  | 25 µg/mL (≈ 64.5 µM) |  | 50 µg/mL (≈ 129 µM) | 50 µg/mL (≈ 129 µM) | 50 µg/mL (≈ 129 µM) |  | IC50 ([5]; MCF7, read-out: IC50 MCF7): 77.4 µM; LD50 [21]: 1.83 mg/kg; IC50 ([7]; HCT-116, read-out: IC50 HCT116): > 258 µM; inhibition at 10 µM [22]: 62.2%; MFC [13, 29]: > 50 µg/mL; MFC [14, 30]: 50 µg/mL (≈ 129 µM); MBC [16, 31]: > 50 µg/mL; MBC [20, 32]: > 50 µg/mL |
| Cc1ccc(NC(=O)CSc2nc3ccccc3n2C(=O)c2ccccc2)cc1 [Compound 12, 2-(1-Benzoyl-1H-benzo[d]imidazol-2-ylthio)-N-p-tolylacetamide] | 31 µM (≈ 12.4 µg/mL) | > 20 mm | 31 µM (≈ 12.4 µg/mL) | 16 µM (≈ 6.42 µg/mL) |  | 12.5 µg/mL (≈ 31.1 µM) |  | 31 µM (≈ 12.4 µg/mL) | 31 µM (≈ 12.4 µg/mL) | 31 µM (≈ 12.4 µg/mL) | 31 µM (≈ 12.4 µg/mL) |  |  |  | 25 µg/mL (≈ 62.3 µM) |  | 50 µg/mL (≈ 125 µM) | > 50 µg/mL | 50 µg/mL (≈ 125 µM) |  | IC50 ([5]; MCF7, read-out: IC50 MCF7): 124 µM; LD50 [21]: 1.85 mg/kg; IC50 ([7]; HCT-116, read-out: IC50 HCT116): 39.8 µM; inhibition at 10 µM [22]: 43.5%; MFC [13, 29]: > 50 µg/mL; MFC [14, 30]: 25 µg/mL (≈ 62.3 µM); MBC [16, 31]: > 50 µg/mL; MBC [20, 32]: > 50 µg/mL |
| O=C(CSc1nc2ccccc2n1C(=O)c1ccccc1)Nc1ccc(Br)cc1 [Compound 9, 2-(1-Benzoyl-1H-benzo[d]imidazol-2-ylthio)-N-(4-bromophenyl)acetamide] | 27 µM (≈ 12.6 µg/mL) | 8 mm | 27 µM (≈ 12.6 µg/mL) | 13 µM (≈ 6.06 µg/mL) | > 214 µM | 17.8 µg/mL (≈ 38.2 µM) | 64.3 µM | 27 µM (≈ 12.6 µg/mL) | 27 µM (≈ 12.6 µg/mL) | 27 µM (≈ 12.6 µg/mL) | 27 µM (≈ 12.6 µg/mL) | 0.027 µM/ml | > 50 µg/mL | 50 µg/mL (≈ 107 µM) | 28.1 µg/mL (≈ 60.3 µM) | > 50 µg/mL | 50 µg/mL (≈ 107 µM) | > 50 µg/mL | > 50 µg/mL | > 50 µg/mL |  |
